IC50 and cell growth inhibition data for 34 compounds are collected here from US20060003980A1, “Cobalt(II) complexes as protein tyrosine kinase inhibitors” (priority 2004, published 2006).

“Also recorded” adds a separate entry of the source. Read-outs that look alike come from different tables or passages of the source.

The target of one assay is T1, Csk (Homo sapiens, UniProt P41240).
T1 construct: GST (glutathione-S-transferase); made in house; host or cells: E. coli (pGEX vector)
The assay can be described thus: Tyrosine kinase activity of Csk using poly E4Y and 32P-ATP. In kind it is biochemical. How it is done: (§1) Recombinant human Src was expressed using the baculovirus-insect cell system and purified as published (Budde et al., 1993). Recombinant Csk and the FGF receptor (FGFr) were expressed as glutathione-S-transferase fusion proteins using the pGEX expression vector and E. coli, and purified as described (Sun et al., 1995).
(§2) The tyrosine kinase activity of Src, Csk and FGFr was determined using poly E4Y and ^32P-ATP. Briefly, enzymes were assayed in a reaction mixture consisting of 0.15 M EPPS-NaOH (pH 8.0) with 6 mM MgCl2, 0.2 mM γ^32P-ATP (0.2-0.4 mCi/μmol), 10% glycerol, 0.1% Triton X-100, and poly E4Y. Poly E4Y is a synthetic peptide whose phosphorylation is measured in this assay by the addition of the radioactively labeled phosphate from the ATP (Budde et al., 1994). For screening assays, 50 μg/ml poly E4Y was used.

In a further assay the target is FGF receptor (FGFr) (Homo sapiens, UniProt P11362). The assay can be described thus: Tyrosine kinase activity of FGFr using poly E4Y and 32P-ATP. The class given is biochemical. The procedure:
Recombinant human Src was expressed using the baculovirus-insect cell system and purified as published (Budde et al., 1993). Recombinant Csk and the FGF receptor (FGFr) were expressed as glutathione-S-transferase fusion proteins using the pGEX expression vector and E. coli, and purified as described (Sun et al., 1995). The tyrosine kinase activity of Src, Csk and FGFr was determined using poly E4Y and ^32P-ATP. […] Poly E4Y is a synthetic peptide whose phosphorylation is measured in this assay by the addition of the radioactively labeled phosphate from the ATP (Budde et al., 1994). For screening assays, 50 μg/ml poly E4Y was used.

The target of a further assay is Src (Homo sapiens, UniProt P12931). The assay can be described thus: Tyrosine kinase activity of Src using poly E4Y and 32P-ATP. The class given is biochemical. How it is done:
as §1, §2

A further assay relates to cell growth. The assay can be described thus: Cell growth inhibition (FIG. 1). The class given is cell-based. An excerpt:
FIG. 1 graphically illustrates that a stable cobalt-tyrosineamide identified as complex no.
This indicates a requirement for both the tyrosine amide moiety and for the metal moiety.

Setting [1] is: * = Extrapolated value from the graph.

T1 sequence (P41240 whole entry, species assumed): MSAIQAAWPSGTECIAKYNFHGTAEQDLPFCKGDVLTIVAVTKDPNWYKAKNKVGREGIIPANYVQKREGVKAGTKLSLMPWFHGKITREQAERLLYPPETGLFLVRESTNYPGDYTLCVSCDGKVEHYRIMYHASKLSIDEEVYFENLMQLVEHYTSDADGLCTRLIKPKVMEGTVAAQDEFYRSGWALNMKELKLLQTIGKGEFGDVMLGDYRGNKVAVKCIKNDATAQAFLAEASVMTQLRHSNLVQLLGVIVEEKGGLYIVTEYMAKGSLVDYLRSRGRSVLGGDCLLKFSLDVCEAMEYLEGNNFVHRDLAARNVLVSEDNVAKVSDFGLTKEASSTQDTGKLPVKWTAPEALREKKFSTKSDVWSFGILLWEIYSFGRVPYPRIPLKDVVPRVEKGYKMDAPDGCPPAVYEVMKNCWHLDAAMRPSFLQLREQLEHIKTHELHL
Chain of FGF receptor (FGFr) (P11362 398-822): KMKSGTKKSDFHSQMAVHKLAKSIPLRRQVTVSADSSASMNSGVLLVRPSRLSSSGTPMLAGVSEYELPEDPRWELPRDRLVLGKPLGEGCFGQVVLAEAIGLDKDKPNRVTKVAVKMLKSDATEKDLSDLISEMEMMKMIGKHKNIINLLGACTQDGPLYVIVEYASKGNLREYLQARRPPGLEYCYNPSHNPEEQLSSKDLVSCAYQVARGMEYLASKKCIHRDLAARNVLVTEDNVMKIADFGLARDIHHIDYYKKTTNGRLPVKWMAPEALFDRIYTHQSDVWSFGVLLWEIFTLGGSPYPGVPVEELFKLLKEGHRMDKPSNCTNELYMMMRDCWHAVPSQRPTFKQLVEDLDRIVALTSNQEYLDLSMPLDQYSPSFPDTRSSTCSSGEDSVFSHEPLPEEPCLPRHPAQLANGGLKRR

For orientation: IC50 means the concentration needed to halve the response being measured. Consider `N[C@H](c1ccccc1)[C@H](N)c1ccccc1.N[C@H](c1ccccc1)[C@H](N)c1ccccc1.[Cl][Co][Cl].[Cl][Co][Cl]` [Complex 31], for which the 50% inhibitory concentration (IC50) on Csk was 50 µM; against FGF receptor (FGFr), 98 µM; against Src it was 55 µM.

For the compound `O=C(NO)c1ccccc1O.O=C(NO)c1ccccc1O.[Cl][Co][Cl]` [Complex 33], the IC50 stood at 92 µM at Csk, 2 µM on FGF receptor (FGFr) and 6 µM at Src.

Consider `NCC(N)=O.[Cl-].[Cl][Co][Cl].[Na+]` [Complex 17], for which the values for the IC50 on Csk (setting [1]), against FGF receptor (FGFr) and on Src were 218 µM, 22 µM and 56 µM, respectively.

Consider `[Co+2].[O-]c1ccccc1C=NCCN=Cc1ccccc1[O-]` [Complex 35, Co[N,N-bis(salicylidene)ethylenediamine]], for which the IC50 against Csk was determined as 92 µM; against FGF receptor (FGFr) it was 3 µM; against Src, 108 µM.

For the compound `O=C([O][Co][O]C(=O)c1ccccc1S)c1ccccc1S` [Complex 34], the IC50 on FGF receptor (FGFr) came out at 125 µM.

With `Nc1ccccc1N.[Cl-].[Cl-].[Co+2]` [Complex 25], the IC50 at Csk (setting [1]) was 210 µM; on FGF receptor (FGFr) it was 14 µM; against Src, 9 µM.

For `NC(=O)CCC(N)C(=O)[O][Co][Cl]` (centres unmarked) [Complex 21], the half-inhibitory concentration (IC50) on Csk (setting [1]) is 389 µM; against FGF receptor (FGFr), 93 µM; at Src it was 58 µM.

For `CN1CCCN=Cc2ccccc2[O][Co][O]c2ccccc2C=NCCC1` [Complex 40], the IC50 came out at 41 µM on FGF receptor (FGFr) and 95 µM against Src.

`[Co+2].[O-]c1ccccc1C=Nc1ccccc1N=Cc1ccccc1[O-]` [Complex 36, Co[N,N-bis(salicylidene)1,2-phenylenediamine]]: the results for the half-maximal inhibitory concentration (IC50) at Csk (setting [1]), against FGF receptor (FGFr) and against Src were 128 µM, 1 µM and 28 µM, respectively.

For `NCCN.[Cl-].[Co+2].[OH-]` [Complex 24], the values for the IC50 at FGF receptor (FGFr) and on Src (setting [1]) were 24 µM and 215 µM, respectively.

Turning to `NC(=O)C(N)Cc1ccc(O)cc1.[OH][Co][Cl]` (centres unmarked) [Complex 15], the values for the IC50 on Csk (setting [1]), on FGF receptor (FGFr) (setting [1]) and at Src were 330 µM, 180 µM and 46 µM, respectively.

For the compound `[Cl][Co]1([Cl])[PH](c2ccccc2)(c2ccccc2)CC[PH]1(c1ccccc1)c1ccccc1` [Complex 38], at Src, the IC50 turned out to be 66 µM.

For the compound `CC(=O)C=C([O-])c1ccccc1.CC(=O)C=C([O-])c1ccccc1.[Co+2]` [Complex 43], the IC50 amounted to 83 µM against FGF receptor (FGFr) and 47 µM against Src.

As for `NC(=O)C(N)Cc1ccc(O)cc1.[Cl-].[Cl-].[Co+2]` (centres unmarked) [Complex 14], the IC50 was determined as 20 µM against FGF receptor (FGFr) and 28 µM against Src.

As to `O=C(C=C(O)C(F)(F)F)C(F)(F)F` [Complex 42], the IC50 against Src is 105 µM.

`N[C@@H]1CCCC[C@H]1N.[Cl-].[Cl-].[Co+2]` (racemic) [Complex 30]: the IC50 was 123 µM on FGF receptor (FGFr) (setting [1]) and 79 µM on Src.

For `NCCNc1cccc2ccccc12.[Cl-].[Cl-].[Co+2]` [Complex 26], the IC50 came out at 39 µM at FGF receptor (FGFr) and 65 µM against Src.

Consider `N[C@H](c1ccccc1)[C@@H](N)c1ccccc1.N[C@H](c1ccccc1)[C@@H](N)c1ccccc1.[Cl][Co][Cl].[Cl][Co][Cl]` [Complex 27], for which the IC50 worked out at 59 µM at Csk, 17 µM at FGF receptor (FGFr) and 7 µM against Src.

Regarding `NC(=O)CCC(N)C(=O)[O][Co][Cl]` (centres unmarked) [Complex 20], the IC50 at Csk (setting [1]) is 281 µM; on FGF receptor (FGFr), 100 µM; against Src, 57 µM.

Regarding `CC(C)CC(N)C(N)=O.[Cl-].[Cl-].[Co+2]` (centres unmarked) [Complex 18], the IC50 at Csk (setting [1]) is 211 µM; at FGF receptor (FGFr), 38 µM; at Src (setting [1]), 105 µM.

Consider `O=Cc1ccccc1[O-].O=Cc1ccccc1[O-].[Co+2]` [Complex 44, Co(salicylaldehyde)2], for which the IC50 at FGF receptor (FGFr) (setting [1]) was 148 µM; at Src, 113 µM.

With `[Cl][Co]([Cl])([PH](c1ccccc1)(c1ccccc1)c1ccccc1)[PH](c1ccccc1)(c1ccccc1)c1ccccc1` [Complex 37], the IC50 at FGF receptor (FGFr) worked out at 76 µM.

With `CC(=O)C=C(C)[O-].CC(=O)C=C(C)[O-].[Co+2]` [Complex 41], the IC50 was 233 µM on FGF receptor (FGFr) (setting [1]) and 177 µM on Src (setting [1]).

`NCCC(=O)NO.[OH][Co][OH]` [Complex 8]: the IC50 on Csk (setting [1]) was 150 µM; against Src, 100 µM.

Turning to `NC(=O)CCC(N)C(N)=O.[Cl][Co][Cl]` (centres unmarked) [Complex 22], the IC50 at Csk (setting [1]) was 361 µM; against FGF receptor (FGFr) it was 46 µM; on Src, 71 µM.

Regarding `CC(=O)[O-].NC(=O)C(N)Cc1ccc(O)cc1.[Co+2].[OH-]` (centres unmarked) [Complex 16], at Src (setting [1]), the IC50 was 285 µM.

As to `NC(Cc1ccc(O)cc1)C(=O)NO.[Co+2].[O-][Cl+3]([O-])([O-])[O-].[O-][Cl+3]([O-])([O-])[O-]` (centres unmarked) [Complex 1], the IC50 at FGF receptor (FGFr) was 14 µM.

Regarding `NC(=O)[C@@H](N)Cc1ccc(O)cc1` [tyrosine amide], the cell growth inhibition result with cell growth is recorded as “not inhibitory; also recorded: neither free metal nor the tyrosine amide were inhibitory”.

On FGF receptor (FGFr), `O=C([O-])c1ccccc1O.O=C([O-])c1ccccc1O.[Co+2]` [Complex 32] registered an IC50 of 182 µM.

Regarding `C[SH]1CCC(N)C(=O)[N](O)[Co]1[OH]` (racemic) [Complex 4], the concentration for half-maximal inhibition (IC50) on Src (setting [1]) is 176 µM.

As for `CC(C)CC(N)C(N)=O.[Cl-].[Cl-].[Co+2]` (centres unmarked) [Complex 19], the IC50 was found to be 45 µM against FGF receptor (FGFr) and 35 µM on Src.

Regarding “Co[N,N-bis(salicylidene)dianiline] [Complex 39]”, the IC50 on FGF receptor (FGFr) (setting [1]) was 155 µM; at Src (setting [1]), 133 µM.

As to `NC(=O)C(N)Cc1c[nH]c2ccccc12.[O-][Cl+3]([O-])([O-])[O][Co][O][Cl+3]([O-])([O-])[O-]` (centres unmarked) [Complex 13], the values for the IC50 at Csk, at FGF receptor (FGFr) and against Src were 77 µM, 54 µM and 24 µM, respectively.

As to `NCC(=O)NO.[OH][Co][OH]` [Complex 5], the IC50 at Src (setting [1]) is 259 µM.
